Common to all, as to assay type: biochemical
One experiment addresses human CSNK1D (Homo sapiens (Human), UniProt P48730). Put plainly: CSNK1D Assay (ADP-Glo, 1 μM ATP). To be noted: read-out: CSNK1D IC50 [mol/l] (median). The method, boiled down:
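Activity is read as ADP produced, by ADP-Glo luminescence after 1 h steps at 22 °C. The reaction uses 1 μM ATP, a biotinylated peptide and insect-cell-expressed GST–CSNK1D (about 0.5 ng/μL) in pH 7.5 HEPES buffer, with 15 min compound–enzyme preincubation.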
Background: In ADP-Glo the light output rises with the ADP produced.

In experiment [1] the target is wild-type Epidermal Growth Factor Receptor (EGFR) (Homo sapiens (Human), UniProt P00533). Put plainly: WT-EGFR Kinase Assay (TR-FRET, 2 mM ATP). On the technique in general: Time-resolved FRET reads energy transfer from a long-lived donor to a nearby acceptor.
In experiment [2] the target is T1, human CSNK1A1 (Homo sapiens (Human), UniProt P48729). As to the kind of experiment: CSNK1A1 Assay 2 (ADP-Glo, 1 μM ATP). Particulars: substrate biotin-Ahx-KRRRAL-pS-VASLPGL, read-out: CSNK1A1 Assay 2 IC50 [mol/l] (median). The method, boiled down:
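Full-length human CSNK1A1 as an N-terminal GST fusion (baculovirus/insect cells) with biotinylated peptide substrate biotin-Ahx-KRRRAL-pS-VASLPGL and 1 μM ATP, in HEPES pH 7.5 buffer. Compounds were pre-incubated with enzyme (~0.0375 ng/μL) for 15 min at 22 °C. Generated ADP was read by ADP-Glo luminescence as the activity measure.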

Experiment [3] addresses T1, human CSNK1A1. Put plainly: CSNK1A1 High ATP Assay (ADP-Glo, 1 mM ATP). Particulars: read-out: CSNK1A1 high ATP assay IC50 [mol/l] (median). The method, boiled down:
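Kinase activity taken as ADP generated, quantified by ADP-Glo luminescence after 1 h ATP depletion and 1 h detection at 22 °C. Enzyme is GST–full-length human CSNK1A1 (insect cell-expressed), pre-bound to compound for 15 min, with phosphopeptide substrate and 1 mM ATP.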

The mark [4] stands for this setting: EGFR Wildtyp- 2 mM ATP IC50 [mol/l] (median).
The mark [5] stands for this setting: read-out: EGFR Wildtyp- 2 mM ATP IC50 [mol/l] (median).

Several values for one entry are separate records, joined by “and”; a condition that tells them apart may be missing. Identical values can stand only once. Like-named read-outs stand apart in the source and are kept apart here. A value given as a limit tells only on which side of the number the result lay.

human CSNK1D, sequence (P48730 whole entry): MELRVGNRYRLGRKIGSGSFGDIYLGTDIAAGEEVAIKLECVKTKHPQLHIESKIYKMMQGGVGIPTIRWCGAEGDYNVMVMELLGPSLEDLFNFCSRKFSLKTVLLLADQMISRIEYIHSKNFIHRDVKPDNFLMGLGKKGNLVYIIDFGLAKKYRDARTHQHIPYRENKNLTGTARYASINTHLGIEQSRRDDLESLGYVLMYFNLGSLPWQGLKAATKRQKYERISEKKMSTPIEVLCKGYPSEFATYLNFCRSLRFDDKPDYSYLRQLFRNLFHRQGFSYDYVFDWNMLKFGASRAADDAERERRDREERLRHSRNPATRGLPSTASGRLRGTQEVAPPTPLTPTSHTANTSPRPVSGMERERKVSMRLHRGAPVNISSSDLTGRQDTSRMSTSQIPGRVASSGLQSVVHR
T1 sequence (P48729 whole entry, the tested form may be a part): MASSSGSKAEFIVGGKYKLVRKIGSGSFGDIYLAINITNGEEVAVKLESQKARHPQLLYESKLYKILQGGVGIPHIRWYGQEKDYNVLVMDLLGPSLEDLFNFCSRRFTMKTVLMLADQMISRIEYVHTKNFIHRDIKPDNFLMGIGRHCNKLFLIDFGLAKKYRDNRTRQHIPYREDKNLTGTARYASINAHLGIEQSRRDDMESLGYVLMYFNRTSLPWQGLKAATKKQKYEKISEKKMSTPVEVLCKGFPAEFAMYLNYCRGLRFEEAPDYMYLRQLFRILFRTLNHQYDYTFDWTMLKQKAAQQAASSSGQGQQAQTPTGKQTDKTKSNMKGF
wild-type Epidermal Growth Factor Receptor (EGFR), sequence (P00533 669-1210): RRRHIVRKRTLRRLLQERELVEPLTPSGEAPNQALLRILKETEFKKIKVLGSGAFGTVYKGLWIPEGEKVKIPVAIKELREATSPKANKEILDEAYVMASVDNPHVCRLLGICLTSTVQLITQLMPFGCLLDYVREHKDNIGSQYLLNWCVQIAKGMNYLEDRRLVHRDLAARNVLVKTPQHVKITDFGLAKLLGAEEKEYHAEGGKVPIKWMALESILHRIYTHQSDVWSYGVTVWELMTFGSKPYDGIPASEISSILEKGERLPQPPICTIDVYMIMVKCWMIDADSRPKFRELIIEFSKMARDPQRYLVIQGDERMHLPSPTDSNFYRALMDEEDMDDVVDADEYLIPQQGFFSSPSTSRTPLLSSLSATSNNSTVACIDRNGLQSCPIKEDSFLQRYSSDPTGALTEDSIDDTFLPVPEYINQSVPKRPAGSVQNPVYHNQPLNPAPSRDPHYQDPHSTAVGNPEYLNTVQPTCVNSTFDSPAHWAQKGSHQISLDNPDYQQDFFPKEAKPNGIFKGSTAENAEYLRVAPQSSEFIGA

With `CC(C(=O)Nc1cc(-c2[nH]c3c(c2Nc2ccccc2)C(=O)NC(C)(C)C3)ccn1)c1ccc(F)cc1` (single isomer, unassigned) [Example 39, N-[4-(3-anilino-6,6-dimethyl-4-oxo-4,5,6,7-tetrahydro-1H-pyrrolo[3,2-c]pyridin-2-yl)pyridin-2-yl]-2-(4-fluorophenyl)propanamide], the IC50 at human CSNK1D is 214 nM; in experiment [1] (setting [4]), over 20000 nM; at human CSNK1A1 [2] it was 179 nM; on human CSNK1A1 [3] it was 2.84 µM and 2.9 µM and > 20 µM (2×).
As for `CC(C(=O)Nc1cc(-c2[nH]c3c(c2Nc2ccccc2F)C(=O)N(C)CC3)ccn1)c1ccc(F)cc1` (single isomer, unassigned) [Example 42, N-{4-[3-(2-fluoroanilino)-5-methyl-4-oxo-4,5,6,7-tetrahydro-1H-pyrrolo[3,2-c]pyridin-2-yl]pyridin-2-yl}-2-(4-fluorophenyl)propanamide], the IC50 at human CSNK1D was 4.92 nM; in experiment [1] (setting [5]), over 20000 nM; on human CSNK1A1 [2] it was 2.4 nM; on human CSNK1A1 [3], 57.2 nM.
On to `CN1C(=O)c2c([nH]c(-c3ccnc(NC(=O)C(CC(F)F)c4ccc(F)cc4)c3)c2Nc2ccccc2F)CC1(C)C` (single isomer, unassigned) [Example 46, 4,4-difluoro-N-{4-[3-(2-fluoroanilino)-5,6,6-trimethyl-4-oxo-4,5,6,7-tetrahydro-1H-pyrrolo[3,2-c]pyridin-2-yl]pyridin-2-yl}-2-(4-fluorophenyl)butanamide], for which the IC50 on human CSNK1D is 8.33 nM; in experiment [1] (setting [4]), over 20000 nM; on human CSNK1A1 [2], 6.64 nM; on human CSNK1A1 [3] it was 119 nM.
Take `CN1C(=O)c2c([nH]c(-c3ccnc(NC(=O)C(CC(F)F)c4ccc(F)cc4)c3)c2Nc2ccccc2F)CC1(C)C` (single isomer, unassigned) [Example 47, 4,4-difluoro-N-{4-[3-(2-fluoroanilino)-5,6,6-trimethyl-4-oxo-4,5,6,7-tetrahydro-1H-pyrrolo[3,2-c]pyridin-2-yl]pyridin-2-yl}-2-(4-fluorophenyl)butanamide]: the IC50 at human CSNK1D is 151 nM; in experiment [1] (setting [5]), over 20000 nM; at human CSNK1A1 [2], 163 nM; at human CSNK1A1 [3] it was over 20000 nM.
Turning to `CC1(C)Cc2[nH]c(-c3ccnc(NC(=O)C(CC(F)F)c4ccc(F)cc4)c3)c(Nc3ccccc3)c2C(=O)N1` (single isomer, unassigned) [Example 50, N-[4-(3-anilino-6,6-dimethyl-4-oxo-4,5,6,7-tetrahydro-1H-pyrrolo[3,2-c]pyridin-2-yl)pyridin-2-yl]-4,4-difluoro-2-(4-fluorophenyl)butanamide], the IC50 was 68.2 nM at human CSNK1D, over 20000 nM in experiment [1] (setting [5]), 51 nM at human CSNK1A1 [2] and 2460 nM on human CSNK1A1 [3].
Regarding `CC(C(=O)Nc1cc(-c2[nH]c3c(c2Nc2ccccc2)C(=O)N(C)CC3)ccn1)c1ccncc1` (single isomer, unassigned) [Example 74, N-[4-(3-anilino-5-methyl-4-oxo-4,5,6,7-tetrahydro-1H-pyrrolo[3,2-c]pyridin-2-yl)pyridin-2-yl]-2-(pyridin-4-yl)propanamide], the IC50 was 55.1 nM on human CSNK1D, over 20000 nM in experiment [1] (setting [4]), 33.9 nM at human CSNK1A1 [2] and 599 nM at human CSNK1A1 [3].
On the same counts, the results for `CC1(C)Cc2[nH]c(-c3ccnc(NC(=O)C(CC(F)F)c4ccc(F)cc4)c3)c(Nc3ccccc3)c2C(=O)N1` (single isomer, unassigned; (+)) [Example 49, (+)-N-[4-(3-anilino-6,6-dimethyl-4-oxo-4,5,6,7-tetrahydro-1H-pyrrolo[3,2-c]pyridin-2-yl)pyridin-2-yl]-4,4-difluoro-2-(4-fluorophenyl)butanamide] are 7.3 nM, over 20000 nM, 4.57 nM and 19.6 nM.
As for `O=C1NC2(CCC2)Cc2[nH]c(-c3ccnc(NC(=O)C(CC(F)F)c4ccc(F)cc4)c3)c(Nc3ccccc3)c21` (single isomer, unassigned; (+)) [Example 55, (+)-N-[4-(3′-anilino-4′-oxo-1′,4′,5′,7′-tetrahydrospiro[cyclobutane-1,6′-pyrrolo[3,2-c]pyridin]-2′-yl)pyridin-2-yl]-4,4-difluoro-2-(4-fluorophenyl)butanamide], the IC50 on human CSNK1D stood at 4.38 nM; in experiment [1] (setting [4]), 1170 nM; on human CSNK1A1 [2], 4.25 nM; at human CSNK1A1 [3] it was 9.1 nM.
On the same counts, the results for `CN(C)CCCC(C(=O)Nc1cc(-c2[nH]c3c(c2Nc2ccccc2)C(=O)N(C)CC3)ccn1)c1ccccc1` (single isomer, unassigned; (+)) [Example 60, (+)-N-[4-(3-anilino-5-methyl-4-oxo-4,5,6,7-tetrahydro-1H-pyrrolo[3,2-c]pyridin-2-yl)pyridin-2-yl]-5-(dimethylamino)-2-phenylpentanamide] are 11.8 nM, 7340 nM, 7.34 nM and 437 nM.
The corresponding values for `CN1CCc2[nH]c(-c3ccnc(NC(=O)C(CC(F)F)c4ccc(F)cc4)c3)c(Nc3ccccc3)c2C1=O` (single isomer, unassigned; (+)) [Example 63, (+)-N-[4-(3-anilino-5-methyl-4-oxo-4,5,6,7-tetrahydro-1H-pyrrolo[3,2-c]pyridin-2-yl)pyridin-2-yl]-4,4-difluoro-2-(4-fluorophenyl)butanamide] are 4 nM, 6680 nM, 2.12 nM and 12.1 nM.
In the case of `CC(C(=O)Nc1cc(-c2[nH]c3c(c2Nc2ccccc2)C(=O)N(C)CC3)ccn1)c1ccncc1` (single isomer, unassigned; (+)) [Example 73, (+)-N-[4-(3-anilino-5-methyl-4-oxo-4,5,6,7-tetrahydro-1H-pyrrolo[3,2-c]pyridin-2-yl)pyridin-2-yl]-2-(pyridin-4-yl)propanamide], the IC50 on human CSNK1D is 4.46 nM; in experiment [1] (setting [4]) it was 6780 nM; at human CSNK1A1 [2], 2.38 nM; on human CSNK1A1 [3], 63.3 nM.
With `CCC(C(=O)Nc1cc(-c2[nH]c3c(c2Nc2ccccc2)C(=O)N(C)CC3)ccn1)c1ccc(F)cc1` (single isomer, unassigned; (+)) [Example 77, (+)-N-[4-(3-anilino-5-methyl-4-oxo-4,5,6,7-tetrahydro-1H-pyrrolo[3,2-c]pyridin-2-yl)pyridin-2-yl]-2-(4-fluorophenyl)butanamide], the IC50 on human CSNK1D was 4.43 nM; in experiment [1] (setting [5]), over 20000 nM; on human CSNK1A1 [2] it was 2.12 nM; on human CSNK1A1 [3], 86.7 nM.
On the same counts, the results for `CC(C(=O)Nc1cc(-c2[nH]c3c(c2Nc2ccccc2)C(=O)N(C)CC3)ccn1)c1ccc(Cl)cc1` (single isomer, unassigned; (+)) [Example 81, (+)-N-[4-(3-anilino-5-methyl-4-oxo-4,5,6,7-tetrahydro-1H-pyrrolo[3,2-c]pyridin-2-yl)pyridin-2-yl]-2-(4-chlorophenyl)propanamide] are 8.47 nM, over 20000 nM, 4.33 nM and 71.4 nM.
Take `CC1Cc2[nH]c(-c3ccnc(NC(=O)Cc4ccc(F)cc4)c3)c(Nc3ccccc3)c2C(=O)N1C` (single isomer, unassigned; (+)) [Example 89, (+)-N-{4-[3-anilino-5,6-dimethyl-4-oxo-4,5,6,7-tetrahydro-1H-pyrrolo[3,2-c]pyridin-2-yl]pyridin-2-yl}-2-(4-fluorophenyl)acetamide]: the IC50 is 5.72 nM on human CSNK1D, 6050 nM in experiment [1] (setting [4]), 1.88 nM at human CSNK1A1 [2] and 364 nM at human CSNK1A1 [3].
In the case of `CC(C(=O)Nc1cc(-c2[nH]c3c(c2Nc2ccccc2)C(=O)N(C)C(C)C3)ccn1)c1ccc(F)cc1` (single isomer, unassigned; (+)) [Example 91, (+)-(2RS)—N-{4-[(6R*)-3-anilino-5,6-dimethyl-4-oxo-4,5,6,7-tetrahydro-1H-pyrrolo[3,2-c]pyridin-2-yl]pyridin-2-yl}-2-(4-fluorophenyl)propanamide], the IC50 was 8.83 nM on human CSNK1D, over 20000 nM in experiment [1] (setting [4]), 4.73 nM at human CSNK1A1 [2] and 693 nM on human CSNK1A1 [3].
On to `CC(C(=O)Nc1cc(-c2[nH]c3c(c2Nc2ccccc2)C(=O)N(C)C(C)C3)ccn1)c1ccc(F)cc1` (single isomer, unassigned; (+)) [Example 92, (+)-N-{4-[3-anilino-5,6-dimethyl-4-oxo-4,5,6,7-tetrahydro-1H-pyrrolo[3,2-c]pyridin-2-yl]pyridin-2-yl}-2-(4-fluorophenyl)propanamide], for which the IC50 at human CSNK1D was 10.7 nM; in experiment [1] (setting [4]), over 20000 nM; at human CSNK1A1 [2], 4.66 nM; on human CSNK1A1 [3], 230 nM.
`CC(C(=O)Nc1cc(-c2[nH]c3c(c2Nc2ccccc2)C(=O)N(C)C(C)C3)ccn1)c1ccc(F)cc1` (single isomer, unassigned; (+)) [Example 96, (+)-N-{4-[3-anilino-5,6-dimethyl-4-oxo-4,5,6,7-tetrahydro-1H-pyrrolo[3,2-c]pyridin-2-yl]pyridin-2-yl}-2-(4-fluorophenyl)propanamide]: the IC50 at human CSNK1D is 4.36 nM; in experiment [1] (setting [4]) it was 7040 nM; on human CSNK1A1 [2], 5.37 nM; at human CSNK1A1 [3], 35.8 nM.
